{"source": "patent US11771678B2", "about": "(NATIONAL UNIVERSITY CORPORATION KUMAMOTO UNIVERSITY, priority 2016, dated 2023)", "key": {"[1]": {"system": "lethal methylmalonic acid seizure model", "assay": "In vivo test using survival rate as index, lethal methylmalonic acid seizure model", "parameters": "species or system C57BL/6J mice", "settings": "db-cAMP 10 μg/kg/dose subcutaneous", "method": "An evaluation of administration of candidate drugs was carried out using the survival rate as an index, using a lethal methylmalonic acid seizure model.\n1. A […] methylmalonic acid solution was intraperitoneally administered to eight-week old C57BL/6J mice at a dose of 20 ml/kg, and thus a lethal methylmalonic acid seizure model was produced.\n2. After one day, after two days, and after three days from the administration of methylmalonic acid, subcutaneous administration of db-cAMP (10 μg/kg/dose) as a candidate drug was performed, and a comparison of the survival rates in an administered group and a non-administered group was carried out."}, "Adenylate cyclase": {"system": "Adenylate cyclase", "assay": "Adenylate cyclase inhibition by methylmalonic acid: cAMP concentration in B42NPCs", "assay_type": "cell-based, human", "settings": "methylmalonic acid 50 μM or 100 μM in culture fluid, 24 hours", "method": "cAMP is produced from ATP by Adenylate cyclase. From this point of view, an investigation was conducted on whether methylmalonic acid would inhibit Adenylate cyclase."}, "[2]": {"system": "Adenylate cyclase, CREB, phosphorylated CREB", "assay": "Protein expression analysis by Western Blotting in B42NPCs", "assay_type": "cell-based, human", "settings": "presence or absence of methylmalonic acid", "method": "2. Meanwhile, the protein expression analysis shown in FIG. 6 was carried out based on the existing Western Blotting method."}, "[3]": {"system": "methylmalonic acidemia-derived NPCs", "assay": "cAMP production ability test with Forskolin (intracellular cAMP ELISA)", "assay_type": "cell-based, human", "settings": "Forskolin 10 μmol/l, after 24 hours; compared with NPCs from normal iPS cells", "method": "(3) On the occasion of performing measurement, a pretreatment of cells was carried out. Cells were detached from the culture plate, the number of cells was counted, and centrifugation was performed. After the centrifugation, the supernatant was suctioned, and the residue was suspended in a 0.1 M HCl solution at a concentration of 1×10^6/cells/mL. In the case of cells with a known cell count, a series of these operations was omitted, and 0.1 M HCl was introduced directly onto the culture plate while the cells were adhered. After suspending, the suspension was incubated at room temperature for 10 minutes and then was centrifuged at 600 g/5 minutes. […] (4) For the measurement, measurement was carried out through a series of the following processes. • A neutralizing liquid (Neutralizing reagent) was introduced in an amount of 50 μL into wells other than total activity (TA) and blanks. • Subsequently, 100 μL of a standard diluent was added to non-specific binding (NBS) and BO (0 pmol/mL standard). Furthermore, 50 μL of a standard diluent was added to the wells of NBS. […] The light absorbance at 405 nm was measured. […]"}}, "data": [{"smiles": "CCCC(=O)Nc1ncnc2c1ncn2[C@@H]1O[C@@H]2COP(=O)(O)O[C@H]2[C@H]1OC(=O)CCC", "note": "[db-cAMP, dibutyl-cAMP]", "values": [{"measurement": "vital prognosis based on seizure originating from methylmalonic acidemia", "setting": "[1]", "value": "markedly ameliorated"}, {"measurement": "survival rate after two days", "setting": "[1]; non-administered group 14.7%, p<0.001", "value": 75.0, "unit": "%"}, {"measurement": "survival rate one day after the administration of methylmalonic acid", "setting": "[1]; non-administered group 35.3%", "value": 85.0, "unit": "%"}]}, {"smiles": "CC(C(=O)O)C(=O)O", "note": "[methylmalonic acid]", "values": [{"measurement": "cAMP production power", "setting": "Adenylate cyclase", "value": "as the methylmalonic acid concentration in the culture fluid is higher, the cAMP production power is decreased"}, {"measurement": "total amounts of protein expression of Adenylate cyclase and CREB", "setting": "[2]", "value": "constant"}]}, {"smiles": "C=C[C@@]1(C)CC(=O)[C@]2(O)[C@@]3(C)[C@@H](O)CCC(C)(C)[C@@H]3[C@H](O)[C@H](OC(C)=O)[C@@]2(C)O1", "note": "[Forskolin, (3R,4aR,5S,6S,6aS,10S,10aR,10bS)-6,10,10b-trihydroxy-3,4a,7,7,10a-pentamethyl-1-oxo-3-vinyldodecahydro-1H-benzo[f]chromen-5-yl acetate]", "values": [{"measurement": "reactivity to Forskolin (intracellular cAMP concentration)", "setting": "[3]", "value": "decrease in reactivity to Forskolin was recognized"}]}]}
